# Results reported in ChEMBL document CHEMBL1201862, “PubChem BioAssay data set” (2004).
#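 Dose response: 5 concentrations. Exposure: 48 h. Format: 96-well plates. Endpoint: linear interpolation; highest concentration if not reached. At the GI50, growth is halved.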 Calls of active or inactive are those of the source. Cut-off read from the data, not from the text of the source: active = GI50 up to about 1.1 µM and inactive = higher.
# How the values were obtained:
# Experiment in all cases: NCI tumour cell line growth inhibition, 48 h
# [1] = test system: HCC 2998
# [2] = test system: SK-MEL-5
# [3] = test system: UO-31
# [4] = test system: HT-29
# [5] = test system: HCT-116
# [6] = test system: T47D
# [7] = test system: TK-10
# [8] = test system: SF-268
# [9] = test system: Hs-578T
# [10] = test system: A549
# [11] = test system: SR
# [12] = test system: U-251
# [13] = test system: MDA-MB-231
# [14] = test system: CCRF-CEM
# [15] = test system: HOP-62
# [16] = test system: SK-MEL-2
# [17] = test system: MCF7
# [18] = test system: LOX IMVI
# [19] = test system: UACC-62
# [20] = test system: Malme-3M
# [21] = test system: SK-MEL-28
# [22] = test system: SK-OV-3
# [23] = test system: IGROV-1
# [24] = test system: 786-0
# [25] = test system: OVCAR-4
# [26] = test system: COLO 205
# [27] = test system: MDA-N
# [28] = test system: OVCAR-8
# [29] = test system: KM12
# [30] = test system: ACHN
# [31] = test system: A498
# [32] = test system: MOLT-4
# [33] = test system: RXF 393
# [34] = test system: SNB-19
# [35] = test system: M14
# [36] = test system: PC-3
# [37] = test system: NCI-H522
# [38] = test system: EKVX
# [39] = test system: HCT-15
# [40] = test system: SN12C
# [41] = test system: BT-549
# [42] = test system: RPMI-8226
# [43] = test system: OVCAR-5
# [44] = test system: DU-145
# [45] = test system: SW-620
# [46] = test system: MDA-MB-435
# [47] = test system: NCI-H226
# [48] = test system: CAKI-1
# [49] = test system: SNB-75
# [50] = test system: K562
# [51] = test system: NCI/ADR-RES
# [52] = test system: NCI-H460
# [53] = test system: SF-539
# [54] = test system: HL-60
# [55] = test system: OVCAR-3
# [56] = test system: UACC-257
# [57] = test system: HOP-92
# [58] = test system: NCI-H23
# [59] = test system: SF-295
smiles,measurement,setting,value
Cc1cc(S(=O)(=O)Nc2nc(N)n(-c3ccccc3)n2)c(S)cc1Cl,GI50,[1],> 100 µM (inactive)
same,GI50,[2],> 100 µM (inactive)
same,GI50,[3],> 100 µM (inactive)
same,GI50,[4],> 100 µM (inactive)
same,GI50,[5],> 100 µM (inactive)
same,GI50,[6],> 100 µM (inactive)
same,GI50,[7],> 100 µM (inactive)
same,GI50,[8],> 100 µM (inactive)
same,GI50,[9],70 µM (inactive)
same,GI50,[10],> 100 µM (inactive)
same,GI50,[11],> 100 µM (inactive)
same,GI50,[12],60 µM (inactive)
same,GI50,[13],> 100 µM (inactive)
same,GI50,[14],> 100 µM (inactive)
same,GI50,[15],> 100 µM (inactive)
same,GI50,[16],> 100 µM (inactive)
same,GI50,[17],> 100 µM (inactive)
same,GI50,[18],> 100 µM (inactive)
same,GI50,[19],> 100 µM (inactive)
same,GI50,[20],> 100 µM (inactive)
same,GI50,[21],> 100 µM (inactive)
same,GI50,[22],> 100 µM (inactive)
same,GI50,[23],> 100 µM (inactive)
same,GI50,[24],> 100 µM (inactive)
same,GI50,[25],> 100 µM (inactive)
same,GI50,[26],> 100 µM (inactive)
same,GI50,[27],> 100 µM (inactive)
same,GI50,[28],> 100 µM (inactive)
same,GI50,[29],> 100 µM (inactive)
same,GI50,[30],> 100 µM (inactive)
same,GI50,[31],> 100 µM (inactive)
same,GI50,[32],> 100 µM (inactive)
same,GI50,[33],> 100 µM (inactive)
same,GI50,[34],43.1 µM (inactive)
same,GI50,[35],> 100 µM (inactive)
same,GI50,[36],> 100 µM (inactive)
same,GI50,[37],> 100 µM (inactive)
same,GI50,[38],> 100 µM (inactive)
same,GI50,[39],> 100 µM
same,GI50,[40],> 100 µM (inactive)
same,GI50,[41],45.1 µM (inactive)
same,GI50,[42],> 100 µM (inactive)
same,GI50,[43],> 100 µM (inactive)
same,GI50,[44],> 100 µM (inactive)
same,GI50,[45],> 100 µM (inactive)
same,GI50,[46],> 100 µM (inactive)
same,GI50,[47],> 100 µM (inactive)
same,GI50,[48],> 100 µM (inactive)
same,GI50,[49],> 100 µM (inactive)
same,GI50,[50],> 100 µM (inactive)
same,GI50,[51],> 100 µM (inactive)
same,GI50,[52],> 100 µM (inactive)
same,GI50,[53],86.3 µM (inactive)
same,GI50,[54],> 100 µM (inactive)
same,GI50,[55],> 100 µM (inactive)
same,GI50,[56],> 100 µM (inactive)
COc1ccc(N2CCN(c3ccc4c(c3)NCC(=O)N4)CC2)cc1,GI50,[1],> 100 µM (inactive)
same,GI50,[2],42.8 µM (inactive)
same,GI50,[3],26.9 µM (inactive)
same,GI50,[4],> 100 µM (inactive)
same,GI50,[5],42.5 µM (inactive)
same,GI50,[6],15.4 µM (inactive)
same,GI50,[7],41.8 µM (inactive)
same,GI50,[8],74.1 µM (inactive)
same,GI50,[9],25.3 µM (inactive)
same,GI50,[10],66.2 µM (inactive)
same,GI50,[11],9.75 µM (inactive)
same,GI50,[12],25.6 µM (inactive)
same,GI50,[13],34.4 µM (inactive)
same,GI50,[14],29.7 µM (inactive)
same,GI50,[15],> 100 µM (inactive)
same,GI50,[16],37.3 µM (inactive)
same,GI50,[17],> 100 µM (inactive)
same,GI50,[18],41.4 µM (inactive)
same,GI50,[57],23.5 µM (inactive)
same,GI50,[19],25.3 µM (inactive)
same,GI50,[20],23.1 µM (inactive)
same,GI50,[21],> 100 µM (inactive)
same,GI50,[22],91.6 µM (inactive)
same,GI50,[23],45.8 µM (inactive)
same,GI50,[24],32.2 µM (inactive)
same,GI50,[58],60.7 µM (inactive)
same,GI50,[25],32.1 µM (inactive)
same,GI50,[26],43 µM (inactive)
same,GI50,[27],> 100 µM (inactive)
same,GI50,[28],26.7 µM (inactive)
same,GI50,[29],21.3 µM (inactive)
same,GI50,[30],32.3 µM (inactive)
same,GI50,[32],60.7 µM (inactive)
same,GI50,[34],59.4 µM (inactive)
same,GI50,[35],52.5 µM (inactive)
same,GI50,[36],36.2 µM (inactive)
same,GI50,[37],14.6 µM (inactive)
same,GI50,[38],39.2 µM (inactive)
same,GI50,[39],49.5 µM
same,GI50,[40],70.6 µM (inactive)
same,GI50,[59],69.2 µM (inactive)
same,GI50,[41],34 µM (inactive)
same,GI50,[42],21.4 µM (inactive)
same,GI50,[43],54.7 µM (inactive)
same,GI50,[44],> 100 µM (inactive)
same,GI50,[45],61.5 µM (inactive)
same,GI50,[46],> 100 µM (inactive)
same,GI50,[47],> 100 µM (inactive)
same,GI50,[48],64.4 µM (inactive)
same,GI50,[49],26.9 µM (inactive)
same,GI50,[50],28.8 µM (inactive)
same,GI50,[51],21.9 µM (inactive)
same,GI50,[52],> 100 µM (inactive)
same,GI50,[53],23.6 µM (inactive)
same,GI50,[54],17.1 µM (inactive)
same,GI50,[55],28.8 µM (inactive)
same,GI50,[56],95.5 µM (inactive)
